Tested on: subjects with mild-to-moderate AD
Test: ADCS-ADL (Activities of Daily Living) change from baseline, 57-week Phase 2a study and 208-week extension study
Assay type: in vivo, human
Parameters: key to unadjusted change in ADCS-ADL score, Mean ± Std. Dev: change from baseline on ADCS-ADL scale 0–78, higher = greater function
Text: The present study integrates and analyzes data and samples from two consecutive clinical trials: 57-week study and 208-week study. 57-week study was a multicenter Phase 2a clinical trial of the drug ANAVEX2-73 that recruited a sample of 32 subjects with mild-to-moderate AD. It consisted of two parts: Part A was a simple randomized, open-label, two-period, cross-over, adaptive trial lasting up to 5 weeks. Each period involved one specific administration route and two possible dose levels: in one period the oral dose (30 mg or 50 mg) was administrated and in the other period an intravenous (IV) form (3 mg or 5 mg) was administered, making a total of 8 possible dose administration schemes in Part A (details available in FIG. 2A). The two periods were separated by a wash-out period of 12 days where no dose was given.
Part B, following immediately after Part A, was an open-label extension of the oral daily dose for an additional 52 weeks. The primary endpoint of 57-week study was to establish the safety and tolerability of the drug. Secondary endpoints aimed at establishing the relationship between dosing regimen and pharmacodynamics-exploratory efficacy outcomes of cognition and function. Cognition was assessed by the Mini Mental State Examination (MMSE), while functional abilities by the Alzheimer's Disease Co-operative Study—Activities of Daily Living Inventory (ADCS-ADL). Additional cognitive measures included the Cogstate Brief Battery (CBB), and functional measures of Electroencephalography and Event-Related Potential (EEG and ERP). Part B continued an adaptive oral administration scheme. Table 12 summarizes mean oral dose administration during the 57-week study study.
Due to favorable safety and tolerability profile of the 57-week study (Table 2), and in response to requests from patients and caregivers, a 208-week open-label extension study (208-week study) was carried out immediately after completion of 57-week study Part B. 208-week study enrolled the 24 subjects who completed Part B and applied similarly an adaptive daily oral administration scheme. ANAVEX2-73-003 involves continuous evaluation of safety and efficacy as measured by the MMSE and ADCS-ADL. At week 148 (interim time point for analyses), data on the subjects remaining in the study (n=21) was analyzed for efficacy outcomes. This report was drafted using data available at week 148, while ANAVEX2-73-003 is still ongoing.
Exploratory clinical efficacy in this study was defined as change from baseline of each patient's cognitive (MMSE) and functional ability (ADCS-ADL) scores. The MMSE57 is a widely used, validated instrument in clinical AD research, including as a cognitive outcome measure in drug trials. The range of the scale is from 0 to 30, with a higher score indicating higher cognitive function. The ADCS-ADL58 is undertaken in a structured caregiver interview format and assesses performance in activities of daily living of patients with AD. The scale is from 0 to 78, with a higher score indicating greater function. The ADCS-ADL has shown to have good test-retest reliability 59. The MMSE and the ADCS-ADL were assessed during pre-specified clinical site visits across 14 different time points during the 57-week study (Weeks 0 and 5 in Part A; Weeks 17, 31, 41, 53, and 57 in Part B), and 208-week study (Weeks 70, 83, 96, 109, 122, 135, and 148) studies.
Corresponding Delta scores were calculated using the difference between values at each visit and at baseline for each individual patient, with a focus on Week 57. In addition, to lower the impact of noise in MMSE and ADCS-ADL scores, a Slope was estimated using a linear regression across all available time points for each individual patient. The derived scores describe the progression of exploratory efficacy data from baseline at several specific time points (Deltas) and over a set period of time (Slope). […]

Q: What does the source list for `CN(C)CC1CCOC1(c1ccccc1)c1ccccc1.Cl` (centres unmarked) [ANAVEX2-73, tetrahydro-N,N-dimethyl-2,2-diphenyl-3-furanmethanamine hydrochloride]?
A: ADCS-ADL Mean Δ at 57 weeks (Absence of COMT_L146fs variant & Baseline MMSE ≥20, N 11): −0.63 ± 5.33; ADCS-ADL Mean Δ at 57 weeks (Absence of COMT_L146fs variant, N 16): −2.37 ± 6.96; ADCS-ADL Mean Δ at 57 weeks (Absence of SIGMAR1_Q2P variant & Absence of COMT_L145fs variant & Baseline MMSE ≥20, N 10): −0.30 ± 5.50; ADCS-ADL Mean Δ at 57 weeks (Absence of SIGMAR1_Q2P variant, N 16): −3.31 ± 7.64; ADCS-ADL Mean Δ at 57 weeks (Absence of SIGNAR1_Q2P variant & Baseline MMSE ≥20, N 11): −1.27 ± 6.13; unadjusted change in ADCS-ADL score, Mean ± Std. Dev (All Patients (N = 21), Week 0): 0 ± 0; unadjusted change in ADCS-ADL score, Mean ± Std. Dev (All Patients (N = 21), Week 5): −1.65 ± 6.71; unadjusted change in ADCS-ADL score, Mean ± Std. Dev (All Patients (N = 21), Week 17): −1.33 ± 3.85; unadjusted change in ADCS-ADL score, Mean ± Std. Dev (All Patients (N = 21), Week 31): −3.60 ± 8.09; unadjusted change in ADCS-ADL score, Mean ± Std. Dev (All Patients (N = 21), Week 41): −3.95 ± 6.34; unadjusted change in ADCS-ADL score, Mean ± Std. Dev (All Patients (N = 21), Week 53): −5.29 ± 7.47; unadjusted change in ADCS-ADL score, Mean ± Std. Dev (All Patients (N = 21), Week 57): −5.24 ± 8.42; unadjusted change in ADCS-ADL score, Mean ± Std. Dev (All Patients (N = 21), Week 70): −8.81 ± 10.90; unadjusted change in ADCS-ADL score, Mean ± Std. Dev (All Patients (N = 21), Week 83): −9.38 ± 12.69; unadjusted change in ADCS-ADL score, Mean ± Std. Dev (All Patients (N = 21), Week 96): −14.52 ± 15.61; unadjusted change in ADCS-ADL score, Mean ± Std. Dev (All Patients (N = 21), Week 109): −14.25 ± 14.56; unadjusted change in ADCS-ADL score, Mean ± Std. Dev (All Patients (N = 21), Week 122): −17.84 ± 18.89; unadjusted change in ADCS-ADL score, Mean ± Std. Dev (All Patients (N = 21), Week 135): −20.29 ± 18.37; unadjusted change in ADCS-ADL score, Mean ± Std. Dev (All Patients (N = 21), Week 148): −21.16 ± 17.73; ADCS-ADL Mean Δ at 57 weeks (All, N 21): −5.19 ± 8.46; ADCS-ADL Mean Δ at 57 weeks (Baseline MMSE ≥20, N 13): −2.00 ± 5.93; unadjusted change in ADCS-ADL score, Mean ± Std. Dev (Group1 (n 2), Week 0): 0.00 ± 0.00; unadjusted change in ADCS-ADL score, Mean ± Std. Dev (Group1 (n 2), Week 5): 6.50 ± 9.19; unadjusted change in ADCS-ADL score, Mean ± Std. Dev (Group1 (n 2), Week 17): 4.50 ± 0.71; unadjusted change in ADCS-ADL score, Mean ± Std. Dev (Group1 (n 2), Week 31): 6.50 ± 3.54; unadjusted change in ADCS-ADL score, Mean ± Std. Dev (Group1 (n 2), Week 41): 4.50 ± 0.71; unadjusted change in ADCS-ADL score, Mean ± Std. Dev (Group1 (n 2), Week 53): 5.00 ± 1.41; unadjusted change in ADCS-ADL score, Mean ± Std. Dev (Group1 (n 2), Week 57): 6.00 ± 2.83; unadjusted change in ADCS-ADL score, Mean ± Std. Dev (Group1 (n 2), Week 70): 6.00 ± 2.83; unadjusted change in ADCS-ADL score, Mean ± Std. Dev (Group1 (n 2), Week 83): 4.50 ± 2.12; unadjusted change in ADCS-ADL score, Mean ± Std. Dev (Group1 (n 2), Week 96): 5.50 ± 2.12; unadjusted change in ADCS-ADL score, Mean ± Std. Dev (Group1 (n 2), Week 109): 4.00 ± 0.00; unadjusted change in ADCS-ADL score, Mean ± Std. Dev (Group1 (n 2), Week 122): 6.00 ± 2.83; unadjusted change in ADCS-ADL score, Mean ± Std. Dev (Group1 (n 2), Week 135): 6.00 ± 2.83; unadjusted change in ADCS-ADL score, Mean ± Std. Dev (Group1 (n 2), Week 148): 7.00 ± 4.24; unadjusted change in ADCS-ADL score, Mean ± Std. Dev (Group2 (n 6), Week 0): 0.00 ± 0.00; unadjusted change in ADCS-ADL score, Mean ± Std. Dev (Group2 (n 6), Week 5): 0.83 ± 6.59; unadjusted change in ADCS-ADL score, Mean ± Std. Dev (Group2 (n 6), Week 17): 1.33 ± 2.80; unadjusted change in ADCS-ADL score, Mean ± Std. Dev (Group2 (n 6), Week 31): 0.33 ± 5.39; unadjusted change in ADCS-ADL score, Mean ± Std. Dev (Group2 (n 6), Week 41): 0.50 ± 4.09; unadjusted change in ADCS-ADL score, Mean ± Std. Dev (Group2 (n 6), Week 53): 0.50 ± 4.18; unadjusted change in ADCS-ADL score, Mean ± Std. Dev (Group2 (n 6), Week 57): 1.83 ± 3.66; unadjusted change in ADCS-ADL score, Mean ± Std. Dev (Group2 (n 6), Week 70): 0.33 ± 4.93; unadjusted change in ADCS-ADL score, Mean ± Std. Dev (Group2 (n 6), Week 83): −0.67 ± 5.85; unadjusted change in ADCS-ADL score, Mean ± Std. Dev (Group2 (n 6), Week 96): −2.50 ± 7.71; unadjusted change in ADCS-ADL score, Mean ± Std. Dev (Group2 (n 6), Week 109): −3.83 ± 7.96; unadjusted change in ADCS-ADL score, Mean ± Std. Dev (Group2 (n 6), Week 122): −3.00 ± 6.72; unadjusted change in ADCS-ADL score, Mean ± Std. Dev (Group2 (n 6), Week 135): −4.17 ± 10.42; unadjusted change in ADCS-ADL score, Mean ± Std. Dev (Group2 (n 6), Week 148): −8.17 ± 15.96; unadjusted change in ADCS-ADL score, Mean ± Std. Dev (Group 3 (n 11), Week 0): 0.00 ± 0.00; unadjusted change in ADCS-ADL score, Mean ± Std. Dev (Group 3 (n 11), Week 5): −0.09 ± 6.32; unadjusted change in ADCS-ADL score, Mean ± Std. Dev (Group 3 (n 11), Week 17): 0.09 ± 3.45; unadjusted change in ADCS-ADL score, Mean ± Std. Dev (Group 3 (n 11), Week 31): −1.82 ± 5.71; unadjusted change in ADCS-ADL score, Mean ± Std. Dev (Group 3 (n 11), Week 41): −2.27 ± 6.40; unadjusted change in ADCS-ADL score, Mean ± Std. Dev (Group 3 (n 11), Week 53): −1.73 ± 5.61; unadjusted change in ADCS-ADL score, Mean ± Std. Dev (Group 3 (n 11), Week 57): −1.36 ± 6.09
